# Patent publication US10696637B2, “Nitrogen-containing heterocyclic compound” (FUJIFILM Corporation, priority 2015, dated 2020)
# System: CXCL10 production
# Experiment: CXCL10 production inhibition test
# Type: cell-based
# Conditions: Endothelial cell; test compound 0.1 μmol/L; human umbilical vein-derived endothelial cells; TNFα 10 ng/mL; supernatant 72 hours after stimulation; ELISA; read-out: Rate of inhibition of CXCL10 production
# Description: (CXCL10 Production Inhibition Test)
# 0.5×10^4 or 1×10^4 human umbilical vein-derived endothelial cells were suspended in 100 μL of an EGM-2 BulletKit medium (without GA) or a Medium-200 medium supplemented with an EGM-2 SingleQuots kit (without GA), inoculated to a 96-well plate and cultured overnight. 100 μL of a solution of each test compound diluted with the same medium as that used in the inoculation was added to the cultured cells (final concentration of the test compound: 0.1 μmol/L). 1 hour thereafter, TNFα was added thereto at a final concentration of 10 ng/mL. 72 hours after the stimulation, the supernatant was recovered, and the amount of CXCL10 produced in the culture supernatant was determined using an ELISA kit (Peprotech, 900-109).
# The rate of inhibition was calculated according to the following expression: Rate of inhibition (%)=100−(Amount of CXCL10 produced in the presence of the test compound/Amount of CXCL10 produced in the absence of the test compound)×100
row,SMILES,inhibition at 0.1 µM
1,"CCn1c(=O)cc(C2CCN(C)CC2)c2cc(C(=O)N(C)c3ccc(C)c(F)c3)ccc21 [Example 292, 1-ethyl-N-(3-fluoro-4-methylphenyl)-N-methyl-4-(1-methylpiperidin-4-yl)-2-oxo-1,2-dihydroquinoline-6-carboxamide]",≥ 50%
2,"CCn1c(=O)cc(C2CCN(C)CC2)c2cc(C(=O)N(C)c3ccc(C)c(Cl)c3)ccc21 [Example 293, N-(3-chloro-4-methylphenyl)-1-ethyl-N-methyl-4-(1-methylpiperidin-4-yl)-2-oxo-1,2-dihydroquinoline-6-carboxamide]",≥ 50%
3,"CCn1c(=O)cc(C2CCN(C)CC2)c2cc(C(=O)N(C)c3ccc(C)c(C)c3)ccc21 [Example 294, N-(3,4-dimethylphenyl)-1-ethyl-N-methyl-4-(1-methylpiperidin-4-yl)-2-oxo-1,2-dihydroquinoline-6-carboxamide]",≥ 50%
